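A five-concentration, 48-hour dose response in 96-well plates underlies each endpoint, interpolated linearly between surrounding concentrations. At the TGI there is no net growth.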
How the values were obtained:
Test in all cases: inhibition of tumour cell growth, NCI panel, 48 h
A549 NSCLC = tested on: A549 NSCLC
OVCAR-5 ovarian = tested on: OVCAR-5 ovarian
HT29 colon = tested on: HT29 colon
OVCAR-4 ovarian = tested on: OVCAR-4 ovarian
DMS 114 small cell lung = tested on: DMS 114 small cell lung
HOP-62 NSCLC = tested on: HOP-62 NSCLC
M19-MEL melanoma = tested on: M19-MEL melanoma
NCI-H23 lung = tested on: NCI-H23 lung
NCI-H522 lung = tested on: NCI-H522 lung
CCRF-CEM leukemia = tested on: CCRF-CEM leukemia
LOX IMVI melanoma = tested on: LOX IMVI melanoma
SNB-75 CNS = tested on: SNB-75 CNS
DU-145 prostate = tested on: DU-145 prostate
CAKI-1 renal = tested on: CAKI-1 renal

SMILES	TGI (A549 NSCLC) [µM]	TGI (OVCAR-5 ovarian) [µM]	TGI (HT29 colon) [µM]	TGI (OVCAR-4 ovarian) [µM]	TGI (DMS 114 small cell lung) [µM]	TGI (HOP-62 NSCLC) [µM]	TGI (M19-MEL melanoma) [µM]	TGI (NCI-H23 lung) [µM]	TGI (NCI-H522 lung) [µM]	TGI (CCRF-CEM leukemia) [µM]	TGI (LOX IMVI melanoma) [µM]	TGI (SNB-75 CNS) [µM]	TGI (DU-145 prostate) [µM]	TGI (CAKI-1 renal) [µM]
C[N+](C)(C)CC(=O)N/N=C/c1oc(-c2cccc([N+](=O)[O-])c2)c(-c2cccc([N+](=O)[O-])c2)c1[N+](=O)[O-]	> 100	> 100	> 100	> 100	> 100	> 100	> 100	> 100	> 100	> 100				
Nc1cccc(/C=C/CN2CCN(CCOC(c3ccccc3)c3ccccc3)CC2)c1	29.7	30.5	13.1	27.7		26.9		30.7	27.7	25.7	28.9	22.7	26.4	34.1
Cc1ccc(S(=O)(=O)N/N=C2/C3C(CC2(C)C)C2(C)CCCC3(C)C2O)cc1 (configuration not stated)	63.7		39.6	43.3		> 100		42.8	44.5	59.4	27.4	39.3	> 100	> 100
CC(=O)c1c2c(cc3c1CC1(C3)Cc3ccc4c(c3C1=O)CCC4)CCC2 (configuration not stated)	> 100	> 100	> 100	> 100		> 100		> 100	9.51	> 100	> 100	> 100	> 100	> 100
CC(C)CNC(=O)c1c(NC(=O)c2ccccc2)sc2[nH]c(=O)n(-c3ccccc3)c(=O)c12	> 100	> 100	> 100	> 100		49.1		> 100	> 100	> 89.6	> 100	48.3	> 100	> 80.9
C[C@]12CC[C@H]3[C@@H](CC=C4C[C@@H](O)CC[C@@]43C)[C@@H]1C[C@H](N1CCOCC1)[C@@H]2O	> 100	> 100	> 100	> 100		> 100		> 100	> 100	> 100	> 100	97.4	> 100	> 100
CN1C(=O)CN=C(c2ccccc2F)c2cc(N=C=S)ccc21	> 100	> 100	> 100	> 100		> 100		> 100	45.2	> 100	> 100	> 100	> 100	25.2
COC(=O)c1ccc(-n2c(C)nc(=O)c(-c3ccccc3)c2C)cc1	> 100	> 100	> 100	> 100		> 100		> 100	> 100	> 100	> 100	> 100	> 100	> 100
c1ccc(CNCCCNCCCCNCCCNCc2ccccc2)cc1	45.5	16.2	5.86	33.1		17.1		12.3	3.37	> 21.5	14.2	21.7	25.4	23
C=CCC1(O)C(=O)OC2C(O)COC21O (configuration not stated)	> 100	> 100	> 100	> 100		> 100		> 100	> 100	> 100	> 100	> 100	> 100	> 100
N#Cc1c(N)nc2c(N=Nc3ccccc3)c(N)nn2c1Nc1ccccc1	46.9	57.7	31.4	46.4		39.1		21.6	39.9	> 100	10.5	70.3	39.8	29.2
CC1(Br)S(=O)(=O)OCCOS1(=O)=O	> 100	> 100	> 100	> 100	> 100	> 100	> 100	> 100	> 100	> 100	> 100	> 100		
COc1ccccc1NC(=O)CC(=O)n1nc(-c2ccccc2)c(N=Nc2ccccc2[N+](=O)[O-])c1-c1ccccc1	> 100	> 100	> 100	> 100	> 100	> 100	> 100	> 100	> 100	> 100	> 100	> 100		> 100
N=c1oc2ccc([N+](=O)[O-])cc2cc1C(=O)Nc1ccccn1	> 100	> 100	> 100	> 100		> 100		> 100	86.2	> 100	> 100	> 100	> 100	> 100
Cc1cc(CN(Cc2ccccc2)Cc2nc3ccccc3[nH]2)c(O)c(CN(Cc2nc3ccccc3[nH]2)Cc2nc3ccccc3[nH]2)c1	> 95.1	> 100	> 69.6	98.7		35.3		> 79.5	> 69.5	> 21.8	13.3	> 72.3	> 100	> 100
CC(=O)[C@H]1[C@@H](OCc2ccccc2)O[N+]([O-])=C(C)[C@@H]1c1ccccc1	> 100	> 100	33.8	> 100		> 100		> 100	26.4	44.1	45.7	> 100	> 100	52
COC(=O)NN/C=C(\C=Nc1ccccc1)[N+](=O)[O-]	> 100		> 100	> 100	> 100	> 100	> 100	> 100	> 100	> 100	> 100			
Cc1ccc(S(=O)(=O)Nn2c(C)cc3ccc(S(=O)(=O)Nc4ccccc4[N+](=O)[O-])cc3c2=O)cc1	> 100	> 100	> 100	> 100		> 100		> 100	> 100	> 100	> 100	> 100	> 100	> 100

Reference: PubChem BioAssay (NCI)
